Converted amounts (≈) assume the structure as drawn.
Columns and labels:
[1] = test system: Plasmodium falciparum D-6 clone (CDC Sierra Leone I); assay: In vitro antimalarial study, [3H]hypoxanthine uptake, D-6 clone; type: cell-based
Protocol: (§1) B. Antimalarial Activities: (a). In Vitro Antimalarial Studies. The in vitro assays were conducted by using a modification of the semiautomated microdilution technique of Desjardins et al and Chulay et al.. Four P. falciparum malaria parasite clones, from CDC Indochina III (W-2), CDC Sierra Leone I (D-6), Southeast Asia Isolates (TM91C235) and RCS (Isolates from Brazil) were utilized in susceptibility testing. They were derived by direct visualization and micromanipulation from patient isolates. The W-2 clone is susceptible to mefloquine but resistant to chloroquine, sulfadoxine, pyrimethamine, and quinine, whereas the D-6 clone is naturally resistant to mefloquine but susceptible to chloroquine, sulfadoxine, pyrimethamine and quinine. Test compounds were initially dissolved in DMSO and diluted 400 fold in RPMI 1640 culture medium supplemented with 25 mM Hepes, 32 mM NaHCO3 and 10% Albumax I (Gibco BRL, Grand Island, N.Y.). These solutions were subsequently serially diluted two-fold with a Biomek 1000 (Beckman, Fullerton, Calif.) over 11 different concentrations. The parasites were exposed to serial dilutions of each compound for 48 hrs and incubated at 37° C. with 5% O2, 5% CO2 and 90% N2 prior to the addition of [^3H]hypoxanthine. After a further incubation of 18 hrs, parasite DNA was harvested from each microtiter well using Packard Filtermate 196 Harvester (Meriden, Conn.) onto glass filters. Uptake of [^3H]hypoxanthine was measured with a Packard Topcount Scintillation. Concentration-response data were analyzed by a non-linear regression logistic dose response model and the IC50 values (50% inhibitory concentrations) for each compound were calculated. (Table 3). (b). In Vivo Antimalarial Studies against P. berghei in mice: The in vivo efficacy of the artelinic acid analogs were determined in a modified Thompson test. This test measures the survivability of mice and parasitemia clearance following administration of drug on days 3-5 post infection. In brief, 5×10^6 P. berghei-infected erythrocytes (KBG-173 strain) were inoculated intraperitoneally to female mice that weighed 24-30 g. By day three post-infection, parasitemia ranged from 1.0-3.7%. Each drug, dissolved in 5% sodium bicarbonate, was administered PO twice daily from day 3-5 post-infection. Total doses for each drug ranged from 1.5-384 mg/kg with 8 mice included in each dosage group. The percent suppression of parasitemia in the treated mice compared to the untreated controls was determined for each test compound; the SD-50 (fifty percent suppression dose) and SD-90 were determined from a non-linear regression logistic dose response fit at day 6 parasitemia data. Survival of mice to day 60 post-infection was considered a cure (C). Compounds were considered active (A) when the survival time of the treated mice was greater than twice the control mice, i.e., 12-14 day (Table 4-5). (c). Sporozoite Induced Test Each compound is ground with a mortar & pestle and suspended in 0.5% hydroxyethylcellulose—0.1% Tween 80 for compounds to be administered PO and those given SC are suspended in peanut oil. Each compound is prepared at 3 different dose levels as requested by WRAIR. Compounds are administered either PO or SC to mice once 4 hr before inoculation of sporozoites. Four-week-old male CD-1 mice, purchased from Charles River and weighing 16-17 g, are placed 5 per cage and allowed to acclimate for 4 days before being treated and then inoculated with sporozoites. They are fed food and water ad-lib and maintained at 76° F. with 12 hr light and 12 hr darkness. The cages and water bottles are changed biweekly. The mice are weighed on Days 0, 3 and 6 then biweekly when blood films are taken. Plasmodium yoelii (17×) is used to infect mice that will be used to infect the mosquitoes. Mice are given a single dose of test compound 4 hr before being inoculated intraperitoneally with 2.5×10^5 sporozoites of Plasmodium yoelii on Day 0. […]

[2] = test system: Plasmodium falciparum W-2 clone (CDC Indochina III); assay: In vitro antimalarial study, [3H]hypoxanthine uptake, W-2 clone; type: cell-based
Protocol: as §1

SMILES	IC50 D-6 ([1]; P. falciparum D-6 clone) [ng/mL]	IC50 W-2 ([2]; P. falciparum W-2 clone) [ng/mL]	IC50 ([1]; Plasmodium falciparum, read-out: IC50 D-6) [ng/mL]	IC50 ([2]; Plasmodium falciparum, read-out: IC50 W-2) [ng/mL]
CCOC(=O)Nc1nc(NC(=O)OCC)c2c(ccc3c2ccn3Cc2ccccc2C(F)(F)F)n1 [Compound 2b]	7.9727 (≈ 15.9 nM)	127.80 (≈ 255 nM)		
CC(=O)N(C(C)=O)c1nc(N(C(C)=O)C(C)=O)c2c(ccc3c2ccn3Cc2ccccc2C(F)(F)F)n1 [Compound 3e, 1,3-Bis(diacetylamino)-7-(2-trifluoromethyl)benzyl-7H-pyrrolo[3,2-f]quinazoline]			0.0236 (≈ 0.0449 nM)	0.0752 (≈ 0.143 nM)

Source: patent publication US7253177B2, “Synthesis and antimalarial activity of pyrrolo[3,2-f]quinazoline-1,3-diamine derivatives” (United States of America as Represented by the Secretary of …, priority 2004, dated 2007)
